ChEMBL document CHEMBL4190169 (Medchemcomm, 2016)

What was measured:
[1] = biological target: T1, Prostaglandin G/H synthase 1 (Ovis aries, UniProt P05979); assay: Inhibition of ovine COX1 using arachidonic acid as substrate incubated for 5 mins followed by substrate addition measured after 2 mins by enzyme immunoassay
T1 sequence (P05979 whole entry): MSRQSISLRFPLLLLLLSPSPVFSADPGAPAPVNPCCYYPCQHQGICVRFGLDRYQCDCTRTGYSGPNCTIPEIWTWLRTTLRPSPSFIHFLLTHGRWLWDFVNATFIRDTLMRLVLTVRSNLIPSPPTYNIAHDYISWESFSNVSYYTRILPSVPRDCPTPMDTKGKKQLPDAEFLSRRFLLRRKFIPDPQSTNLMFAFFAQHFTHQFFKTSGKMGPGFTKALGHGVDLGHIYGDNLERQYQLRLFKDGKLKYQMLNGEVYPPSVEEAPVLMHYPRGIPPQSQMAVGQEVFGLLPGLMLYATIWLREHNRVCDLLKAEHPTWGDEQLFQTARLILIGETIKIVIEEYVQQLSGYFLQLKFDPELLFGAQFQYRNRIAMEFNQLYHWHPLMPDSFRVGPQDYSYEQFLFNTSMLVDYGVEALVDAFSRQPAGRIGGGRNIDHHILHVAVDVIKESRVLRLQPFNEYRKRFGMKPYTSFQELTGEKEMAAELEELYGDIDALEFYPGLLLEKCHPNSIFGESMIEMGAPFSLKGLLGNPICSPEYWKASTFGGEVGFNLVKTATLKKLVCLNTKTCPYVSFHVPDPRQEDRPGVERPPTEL

[2] = tested on: Rattus norvegicus; assay: Antiinflammatory activity in gamma-irradiated carrageenan-induced Wistar rat paw edema model assessed as paw oedema at 100 mg/kg, ip administered 1 hr prior to carrageenan challenge measured after 3 hrs (reference value: 89.5 +/- 1.47%); format: functional
[3] = tested on: Rattus norvegicus; assay: Analgesic activity in gamma-irradiated carrageenan-induced Wistar rat hyperalgesia model assessed as nociceptive threshold at 100 mg/kg, ip administered 1 hr prior to carrageenan challenge measured after 3 hrs by analgesimetric analysis (reference value: 37.60 +/- 0.79 g); format: functional
[4] = tested on: Rattus norvegicus; assay: Ulcerogenic activity in Wistar rat assessed as appearance of ulcers and erosions in stomach by measuring ulcer index at 100 mg/kg, po measured after 4 hrs; format: toxicity, organism-based; conditions: in vivo
[5] = Acute toxicity in Swiss albino mouse assessed as mortality administered ip measured for 24 hrs; format: organism-based; conditions: in vivo, read-out: ALD50

SMILES | IC50 [1] [µM] | Activity [2] [%] | Activity [3] [g] | UI [4] | LD50 at 24 h [5] [mg/kg]
Nc1nnc(S)s1 | > 50 |  |  |  | 
Cc1ccc(/C=N/C2=NN3C(=O)CSC3S2)cc1 (stereo not given) | > 50 |  |  |  | 
N#CC1=C(N)N=C2SC(=S)NN2C1c1ccc([N+](=O)[O-])cc1 (stereo not given) | > 50 |  |  |  | 
O=S(=O)(Nc1ncccn1)c1ccc(NCNc2n[nH]c(=S)s2)cc1 | > 50 |  |  |  | 
COc1ccc(C2SCC(=O)N2c2n[nH]c(=S)s2)cc1 (stereo not given) | 24 | 31.5 | 62.37 | 0.26 | 
S=C1NN2C(c3ccccc3)=CC(c3ccc(Cl)cc3)N=C2S1 (stereo not given) | 30.7 | 43.1 | 78.51 | 0.6 | 
N#CC1=C(N)N=C2SC(=S)NN2C1c1ccc(Cl)cc1 (stereo not given) | > 50 |  |  |  | 
O=C1CSC2SC(/N=C/c3ccc(Br)cc3)=NN12 (stereo not given) | > 50 | 50.49 | 44.91 | 0 | 
S=c1[nH]nc(/N=C/c2ccc(Cl)cc2)s1 | > 50 |  |  |  | 
COc1ccc(C2C(C#N)=C(N)N=C3SC(=S)NN32)cc1 (stereo not given) | > 50 |  |  |  | 
O=S(=O)(Nc1ccccn1)c1ccc(NCNc2n[nH]c(=S)s2)cc1 | > 50 |  |  |  | 
COc1ccc(/C=N/c2n[nH]c(=S)s2)cc1 | 41.7 | 41.53 | 56.3 | 0.38 | 
O=S(=O)(Nc1nccs1)c1ccc(NCNc2n[nH]c(=S)s2)cc1 | > 50 | 24.6 | 90.21 | 0 | > 1000
N=c1cc(Nc2ccc(S(N)(=O)=O)cc2)n2[nH]c(=S)sc2n1 | > 50 |  |  |  | 
Cc1ccc(C2SCC(=O)N2c2n[nH]c(=S)s2)cc1 (stereo not given) | > 50 |  |  |  | 
S=C1NN2C(c3ccccc3)=CC(c3ccccc3Cl)N=C2S1 (stereo not given) | > 50 |  |  |  | 
CN(C)c1ccc(C2C=C(c3ccccc3)N3NC(=S)SC3=N2)cc1 (stereo not given) | > 50 |  |  |  | 
N=c1cc(Nc2ccc(S(=O)(=O)Nc3nccs3)cc2)n2[nH]c(=S)sc2n1 | > 50 | 25.13 | 76.51 | 0.05 | > 1000

SMILES | IC50 [1] [µM] | Activity [2] [%] | Activity [3] [g] | UI [4] | LD50 at 24 h [5] [mg/kg]
NS(=O)(=O)c1ccc(NCNc2n[nH]c(=S)s2)cc1 | > 50 |  |  |  | 
S=c1[nH]nc(/N=C/c2ccc(Br)cc2)s1 | > 50 | 45.62 | 95.6 | 0 | 
N=c1cc(Nc2ccc(S(=O)(=O)Nc3ccccn3)cc2)n2[nH]c(=S)sc2n1 | > 50 | 24.21 | 85.8 | 0.05 | > 800
Cc1ccc(/C=N/c2n[nH]c(=S)s2)cc1 | > 50 |  |  |  | 
CN(C)c1ccc(C2C(C#N)=C(N)N=C3SC(=S)NN32)cc1 (stereo not given) | > 50 | 43.7 | 53.88 | 0 | 
Cc1ccnc(NS(=O)(=O)c2ccc(NCNc3n[nH]c(=S)s3)cc2)n1 | > 50 | 25.31 | 80.78 | 0.05 | > 800
O=C1CSC(c2ccc(Br)cc2)N1c1n[nH]c(=S)s1 (stereo not given) | 1.32 | 25.07 | 51.51 | 0.45 | > 1000
O=C1CSC(c2ccc(Cl)cc2)N1c1n[nH]c(=S)s1 (stereo not given) | > 50 |  |  |  | 
S=C1NN2C(c3ccccc3)=CC(c3ccc(Br)cc3)N=C2S1 (stereo not given) | > 50 |  |  |  | 
Cc1cc(C)nc(NS(=O)(=O)c2ccc(NCNc3n[nH]c(=S)s3)cc2)n1 | > 50 |  |  |  | 
O=C1CSC2SC(/N=C/c3ccc(Cl)cc3)=NN12 (stereo not given) | > 50 |  |  |  | 
N#CC1=C(N)N=C2SC(=S)NN2C1c1ccc(Br)cc1 (stereo not given) | > 50 | 31.3 | 60.51 | 0.05 | 
COc1ccc(/C=N/C2=NN3C(=O)CSC3S2)cc1 (stereo not given) | > 50 | 15.47 | 54.13 | 0.05 | > 800
N=c1cc(Nc2ccc(S(=O)(=O)Nc3ncccn3)cc2)n2[nH]c(=S)sc2n1 | > 50 |  |  |  | 
COc1ccc(C2C=C(c3ccccc3)N3NC(=S)SC3=N2)cc1 (stereo not given) | 1.34 | 43.6 | 66.6 | 0.64 | 
N#CC1=C(N)N=C2SC(=S)NN2C1c1ccccc1 (stereo not given) | > 50 |  |  |  | 
Cc1ccc(-c2cc(C(F)(F)F)nn2-c2ccc(S(N)(=O)=O)cc2)cc1 [CELECOXIB] |  | 18.61 | 90.23 | 0 | 
